Experiments:
[1] = tested on: murine melanoma cells; test: Inhibitive effect on melanin formation in melanoma cells; format: cell-based; conditions: Mus musculus, 48 h, 37° C., by observing the color of the cells, read-out: concentration with inhibitive effect on melanin formation within melanoma cells
Experimental: (§1) 4-hydroxy-5-methyl-3[2H]-furanone obtained by the method of the invention has an excellent activity to inhibit melanin formation.
To a T-shaped flask containing […] of Eagle's medium containing 10% fetal calf essential medium was added murine melanoma cells in an amount of 5×10^4 cells/30 ml. […] After the cultivation, the cells were collected and examined for melanin formation of the cells by observing the color of the cells.

[2] = in vitro; format: cell-based; conditions: fibroblast cells
Description: as §1

[3] = target: T1, tyrosinase (Agaricus bisporus, UniProt C7FF04); test: Tyrosinase-inhibiting action; format: biochemical; conditions: pH 6.8, 37° C., 10 minutes, tyrosine substrate
T1 construct: purchased SIGMA
T1 sequence (C7FF04 2-392 limits assumed): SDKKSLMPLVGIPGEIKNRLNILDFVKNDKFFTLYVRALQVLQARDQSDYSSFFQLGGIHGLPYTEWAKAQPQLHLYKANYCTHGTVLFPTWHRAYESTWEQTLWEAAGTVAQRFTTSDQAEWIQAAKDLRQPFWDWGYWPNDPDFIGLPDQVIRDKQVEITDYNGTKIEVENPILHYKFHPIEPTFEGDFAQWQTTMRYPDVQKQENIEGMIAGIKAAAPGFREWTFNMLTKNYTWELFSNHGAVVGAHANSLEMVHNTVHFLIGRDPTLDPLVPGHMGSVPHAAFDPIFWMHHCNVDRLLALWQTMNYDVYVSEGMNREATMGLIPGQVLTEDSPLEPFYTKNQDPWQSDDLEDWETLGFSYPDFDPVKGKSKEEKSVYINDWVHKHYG
Experimental: As an enzyme, tyrosinase purchased from SIGMA was used. […] Water were used to dilute the test compounds. As a control, 0.9 ml of 1:1 mixture of ethanol and water was used. […] The test tube was quickly cooled in an ice water bath to stop the reaction, and the absorbance was measured at 475 nm. The tyrosinase-inhibitory activities of the test compounds were calculated by using the following equation: [formula] From the inhibitions(%) of a series of dilutions of test compounds, IC50, i.e., the concentration of test compound which inhibit tyrosinase by 50% was calculated for each test compound.

[4] = Anti-oxidation activity (2): prevention of oxidation of unsaturated fatty acid over time (FIG. 5); format: biochemical; conditions: 200 ppm, 37° C., pH 7.4
Experimental: (§2) An anti-oxidation activity of 4-hydroxy-5-methyl-3[2H]-furanone was examined as follows:
1.0 ml of 0.2M potassium phosphate buffer(pH 7.4) containing 2mg/ml of linolenic acid, 10 mg/ml of Tween-20 and 200 ppm of L-ascorbic acid, tocopherol or 4-hydroxy-5-methyl-3[2H]-furanone was allowed to stand at 37° C. for 24 hours. For a control, 1.0 ml of 0.2M potassium phosphate buffer(pH 7.4) containing 2 mg/ml of linolenic acid and 10 mg/ml of Tween-20 was employed.
The same procedure as that of Experimental Example 2 was carried out to evaluate the anti-oxidation activity of test compounds.
In FIG. 5, the longitudinal axis indicates an amount of fatty peroxide represented by an absorbance at 500 nm and the horizontal axis indicates the time in days.

[5] = Anti-oxidation activity (1): inhibition of autonomous oxidation of linolenic acid, absorbance at 500 nm; format: biochemical; conditions: for concentration showing 90% inhibition of autonomous oxidation of linolenic acid: pH 7.4, 37° C., 24 hours, for the extract: concentration of 4-hydroxy-5-methyl-3[2H]-furanone
Experimental: as §2
To 1.0 ml of 0.2M potassium phosphate buffer(pH 7.4) containing 2 mg/ml of linolenic acid and 10 mg/ml of Tween-20 was added the extract obtained from Lichrosorb RP-18 column in Example 1, which contains a serial concentrations of 10~2000 ppm of 4-hydroxy-5-methyl-3[2H]-furanone. […] The resulting mixture was allowed at 37° C. for 24 hours. 0.1 ml of the reaction mixture was taken and diluted with 9.7 ml of ethanol. 0.1 ml of 30% ammonium thiocyanide and 0.1 ml of a mixture of 5% ferrous ammonium sulfate and 3.5% […] were added, and 3 minutes later, an absorbance at 500 nm was measured to evaluate an automatic oxidation of fatty acid.

| MCC at 48 h [2] | IC50 [3] | SMILES | minimal effective concentration [1] | prevention of oxidation of unsaturated fatty acid (in words) [4] | anti-oxidation activity (in words) ([5]; compared with maltol, kojic acid or L-ascorbic acid) | concentration showing 90% inhibition of autonomous oxidation of linolenic acid [5] |
| --- | --- | --- | --- | --- | --- | --- |
| > 500 µg/mL | 52.6 µM | CC1=C(O)C(=O)CO1 [4-hydroxy-5-methyl-3[2H]-furanone] | 10 to 20 µg/mL | can prevent more efficiently the oxidation of unsaturated fatty acid than the same amount of L-ascorbic acid or α-tocopherol | superior over maltol, kojic acid or L-ascorbic acid | – |
| – | – | Cc1occc(=O)c1O [maltol] | – | – | – | 460 ppm |
| > 500 µg/mL | – | O=c1cc(CO)occ1O [kojic acid] | – | – | – | 600 ppm |
| 50 µg/mL | – | O=C1O[C@H]([C@@H](O)CO)C(O)=C1O [ascorbic acid, L-ascorbic acid] | – | – | – | – |

— patent US5602259A, “Method for producing 4-hydroxy-5-methyl-3[2H]-furanone and uses of same” (priority 1993, dated 1997)
